Assays:
[1] = Lyophilization of PLGA-mPEG NPs in the presence of lyoprotectants, reconstitution with water, DLS; assay type: physicochemical; parameters: key to Aggr. (visible large aggregates): Y = aggregates observed; N = no aggregates observed; conditions: for Size in nm: PLGA-mPEG NPs lyophilized and reconstituted; for prevention of NP aggregation during lyophilization (in words): PLGA-mPEG5k NPs, lyoprotectant/NP mass ratio up to 10
Description: Lyophilization of PLGA-mPEG NPs in the presence of lyoprotectants. An acetone solution of PLGA-mPEG (5 mg/mL, 100 μL) was added dropwise into a vigorously stirred water solution (4 mL) containing the NCs to make the PLGA-mPEG NPs. A lyoprotectant was added to the vigorously stirred NC solution at the selected lyoprotectant/NC mass ratio (varying from 2 to 20). The solution was then lyophilized, reconstituted with 2 mL water and stirred for 5 minutes. The sizes of the resulting NCs were analyzed by DLS.

[2] = system: LLC tumors; test: Tumor prevention/inhibition study, LLC cells co-injected subcutaneously with test article; assay type: in vivo, C57B1/6 female mice; conditions: at 25 days, 5 mg/kg in 1:1 Cremophor EL/ethanol
Description: To access the ability of paclitaxel-loaded nanoparticles to inhibit establishment of lung cancer in an in vivo model mimicking microscopic disease that can remain when the surgical margin is close to the tumor, Ptxl-PLA NCs were evaluated in a rapidly growing subcutaneous tumor model. Specifically, the ability of Ptxl-PLA NCs to prevent establishment of rapidly growing LLC tumors in C57B1/6 female mice compared to Ptxl alone (in a clinical formulation) and controls without any drugs was assessed. In these experiments, 1,000,000 LLC tumor cells plus Ptxl-LA25/PLGA-mPEG nanoparticles containing a total dose of 5 or 50 mg/kg incorporated Ptxl were injected subcutaneously into the flank of a mouse. Other groups received the injection of 1,000,000 LLC cells alone or LLC cells mixed with Ptxl solubilized with 1:1 Cremophor EL/ethanol as used clinically at 5 mg/kg dosage.

With `OC[C@@H](O)[C@@H](O)[C@H](O)[C@@H](O)CO` [Sorbitol] the Size in nm ([1]; lyoprotectant/NP mass ratio 2) was greater than 1000 nm, the Size in nm ([1]; lyoprotectant/NP mass ratio 10) was 764.8 nm and the “Aggr. (visible large aggregates)” value ([1]; lyoprotectant/NP mass ratio 2) was “Y”. For the same compound, the “Aggr. (visible large aggregates)” value ([1]; lyoprotectant/NP mass ratio 10) was “Y”, the “Distr. No. (number of particle size distributions)” value ([1]; lyoprotectant/NP mass ratio 10) was 2 and the PDI ([1]; lyoprotectant/NP mass ratio 10) was 0.299. The “SL/SO (ratio of lyophilized NP size to pre-lyophilized NP size)” value ([1]; lyoprotectant/NP mass ratio 10) was 12.28.

With `CCCCCCCCCCCCOS(=O)(=O)[O-].[Na+]` [SDS, sodium dodecyl sulfate] the “prevention of NP aggregation during lyophilization (in words)” value (shortened to “prevention”) [1] was “unable to prevent NP aggregation”, the Size in nm ([1]; lyoprotectant/NP mass ratio 10) was greater than 1000 nm and the “Aggr. (visible large aggregates)” value ([1]; lyoprotectant/NP mass ratio 10) was “Y”.

In the case of `OC[C@H]1O[C@H](O[C@H]2[C@H](O)[C@@H](O)C(O)O[C@@H]2CO)[C@H](O)[C@@H](O)[C@@H]1O` (mixture of isomers) [Maltose], the Size in nm ([1]; lyoprotectant/NP mass ratio 2) is reported as greater than 1000 nm, the Size in nm ([1]; lyoprotectant/NP mass ratio 10) is reported as 220.4 nm and the “Aggr. (visible large aggregates)” value ([1]; lyoprotectant/NP mass ratio 2) is reported as “Y”. For the same compound, the “Aggr. (visible large aggregates)” value ([1]; lyoprotectant/NP mass ratio 10) was “Y”, the “Distr. No. (number of particle size distributions)” value ([1]; lyoprotectant/NP mass ratio 10) was 2 and the PDI ([1]; lyoprotectant/NP mass ratio 10) was 0.288. For the same compound, the “SL/SO (ratio of lyophilized NP size to pre-lyophilized NP size)” value ([1]; lyoprotectant/NP mass ratio 10) was 3.54.

For `O=C[C@H](O)[C@@H](O)[C@@H](O)[C@H](O)CO` [Galactose], the “prevention” value [1] was “could not prevent NP aggregation at all”, the Size in nm ([1]; lyoprotectant/NP mass ratio 10) was greater than 1000 nm and the “Aggr. (visible large aggregates)” value ([1]; lyoprotectant/NP mass ratio 10) was “Y”.

For `CC(=O)O[C@H]1C(=O)[C@@]2(C)[C@H]([C@H](OC(=O)c3ccccc3)[C@]3(O)C[C@H](OC(=O)[C@H](O)[C@@H](NC(=O)c4ccccc4)c4ccccc4)C(C)=C1C3(C)C)[C@]1(OC(C)=O)CO[C@@H]1C[C@@H]2O` [paclitaxel], the “tumors at injection site” value [2] was “large tumors were noted”.

In the case of `OC[C@H]1O[C@@](CO)(O[C@H]2O[C@H](CO)[C@@H](O)[C@H](O)[C@H]2O)[C@@H](O)[C@@H]1O` [Sucrose], the Size in nm ([1]; lyoprotectant/NP mass ratio 2) is reported as 245.2 nm, the Size in nm ([1]; lyoprotectant/NP mass ratio 10) is reported as 217.5 nm and the “Aggr. (visible large aggregates)” value ([1]; lyoprotectant/NP mass ratio 2) is reported as “Y”. The “Distr. No. (number of particle size distributions)” value ([1]; lyoprotectant/NP mass ratio 2) was 2, the PDI ([1]; lyoprotectant/NP mass ratio 2) was 0.227 and the “SL/SO (ratio of lyophilized NP size to pre-lyophilized NP size)” value ([1]; lyoprotectant/NP mass ratio 2) was 3.93. The “Aggr. (visible large aggregates)” value ([1]; lyoprotectant/NP mass ratio 10) was “Y”, the “Distr. No. (number of particle size distributions)” value ([1]; lyoprotectant/NP mass ratio 10) was 2 and the PDI ([1]; lyoprotectant/NP mass ratio 10) was 0.220. For the same compound, the “SL/SO (ratio of lyophilized NP size to pre-lyophilized NP size)” value ([1]; lyoprotectant/NP mass ratio 10) was 3.49.

For `NCC(=O)O` [Glycine], the “prevention” value [1] was “unable to prevent NP aggregation”, the Size in nm ([1]; lyoprotectant/NP mass ratio 10) was greater than 1000 nm and the “Aggr. (visible large aggregates)” value ([1]; lyoprotectant/NP mass ratio 10) was “Y”.

Source: patent US9295651B2, “Nanoconjugates and nanoconjugate formulations” (priority 2009, dated 2016)
